“And” between values parts separate entries of the source, which are not always exact repeats. Identical values can stand only once.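 How tested: cells in 96-well plates exposed to compound for 48 hours at five concentrations. GI50 marks 50% less growth. TGI: total growth inhibition.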 Starred links: 1 amine or outer side, 2 acyl side, 3 side chain; linkers in the order of their positions; H or OH if unused. Positions of bridges follow the written chain, without caps; N, C: chain ends. Non-standard residues stand in square brackets, D forms with d. Residues, ends and D or L forms follow the SMILES beside them. Chains are numbered I, II in the order given. Actinocin(9to1) = Cc1c2oc3c(C)ccc(C(=O)[*:1])c3nc-2c(C(=O)[*:2])c(N)c1=O; NMeY = CN[CH](Cc1ccc(O)cc1)C(=O)O; Sar = CNCC(=O)O
What was measured:
Assay in all cases: NCI-60 cell line screen, 48 h
TK-10 renal = tested on: TK-10 renal
OVCAR-5 ovarian = tested on: OVCAR-5 ovarian
786-0 renal = tested on: 786-0 renal
A549 NSCLC = tested on: A549 NSCLC
SF-268 CNS = tested on: SF-268 CNS
IGROV1 ovarian = tested on: IGROV1 ovarian
SN12C renal = tested on: SN12C renal
SR leukemia = tested on: SR leukemia
OVCAR-3 ovarian = tested on: OVCAR-3 ovarian
T-47D breast = tested on: T-47D breast
UO-31 renal = tested on: UO-31 renal

SMILES	TGI (TK-10 renal) [µM]	TGI (OVCAR-5 ovarian)	TGI (786-0 renal) [µM]	TGI (A549 NSCLC) [µM]	TGI (SF-268 CNS) [µM]	TGI (IGROV1 ovarian) [µM]	TGI (SN12C renal) [µM]	TGI (SR leukemia) [µM]	TGI (OVCAR-3 ovarian) [µM]	TGI (T-47D breast) [µM]	TGI (UO-31 renal)	GI50 (UO-31 renal)	GI50 (TK-10 renal) [µM]	GI50 (OVCAR-5 ovarian)	GI50 (A549 NSCLC)	GI50 (OVCAR-3 ovarian)	GI50 (T-47D breast)	GI50 (SF-268 CNS) [µM]	GI50 (IGROV1 ovarian) [µM]	GI50 (SR leukemia) [µM]
CC(=O)N(C(C)=O)c1ncc(-n2nc(-c3ccccc3)cc2-c2ccccc2)c(-c2ccccc2)n1	> 10	> 10 µM	> 10	> 10	> 10	> 10	> 10	> 10	> 10	> 10	–	–	–	–	–	–	–	–	–	–
O=[N+]([O-])C[C@@]12O[C@]3(O)C4C5CC(C6C5C3C61)C42 (some centres not stated)	> 100	> 100 µM	> 100	> 100	> 100	> 100	> 100	> 100	> 100	> 100	> 100 µM	–	–	–	–	–	–	–	–	–
[N-]=[N+]=Nc1c([N+](=O)[O-])c(=O)n(-c2ccccc2)c2ccccc12	44.2	> 100 µM	43.4	> 100	59.6	88.4	62.9	82.6	22.7	> 100	32.2 µM	–	–	–	–	–	–	–	–	–
O=C1c2ccccc2C(=O)c2c(NCC(O)CO)ccc(NCC(O)CO)c21 (configuration not stated)	> 100	> 100 µM	> 100	> 100	> 100	> 100	> 100	> 100	> 100	> 100	71.2 µM	–	–	–	–	–	–	–	–	–
COC(=O)C1=C(OC(=O)/C(=C/c2ccc(Cl)cc2)c2ccc(Cl)cc2)C(C(=O)OC)[C@@]2(O)[C@@H](C(=O)OC)[C@H](C)C[C@@H]1[C@@H]2C(=O)OC (some centres not stated)	> 100	> 100 µM	> 100	> 87.7	> 100	> 100	> 100	> 100	> 100	> 100	> 100 µM	–	–	–	–	–	–	–	–	–
COc1cccc(C(=O)Oc2ccc(OS(=O)(=O)c3ccc(C)cc3)cc2)c1C#N	> 100	> 100 µM	> 100	> 100	> 100	> 100	> 100	> 100	> 100	71.7	> 100 µM	–	–	–	–	–	–	–	–	–
O=[N+]([O-])c1ccc2[nH]c(=S)[nH]c(=S)c2c1	> 100	> 100 µM	> 100	> 100	> 100	> 100	> 100	> 100	> 100	> 100	> 100 µM	–	–	–	–	–	–	–	–	–
C=CCn1c(N)c(C#N)c(C#N)c1-c1ccccc1	> 100	> 100 µM	> 100	> 100	> 100	> 100	> 100	> 100	> 100	> 100	> 100 µM	–	–	–	–	–	–	–	–	–
COC(=O)C1=C(C(=O)OC)N(c2ccc(OC)cc2[N+](=O)[O-])C(c2ccc(C)cc2)=CC1c1ccc(OC)cc1OC (configuration not stated)	> 100	> 100 µM	> 94	65.3	> 100	56.8	26.5	27.7	> 95	> 93.3	> 31.6 µM	–	–	–	–	–	–	–	–	–
O=C1Nc2cccc(Cl)c2/C1=C\c1c(Cl)nc2n1CCS2	> 100	> 100 µM	> 100	> 100	> 100	> 100	> 100	> 100	> 100	> 100	> 100 µM	–	–	–	–	–	–	–	–	–
CO/N=C(\C)c1ccc(Nc2nc3ccccc3c3occc23)cc1	25.4	31.5 µM	27.2	39	32.5	31.7	28.9	58.6	96.1	28.9	35.9 µM	–	–	–	–	–	–	–	–	–
BrC1=C(Br)C2(SCCS2)[C@H]2C[C@@H]1c1ccccc12	> 100	> 100 µM	> 100	> 100	> 100	> 100	> 100	75	> 100	> 100	> 62.3 µM	–	–	–	–	–	–	–	–	–
Cc1c(C)c2c(c(N)c1C#N)C(=O)N(NC(=O)c1ccccc1)C2=O	> 100	> 100 µM	> 100	> 100	> 100	> 100	> 100	> 100	> 100	> 100	> 100 µM	–	–	–	–	–	–	–	–	–
O=C1Sc2cc3ccccc3cc2C(=O)Sc2ccc(Br)cc21	17.8	25.5 µM	5.63	30.9	23.2	16.8	16.8	9.14	5.21	23.8	–	–	–	–	–	–	–	–	–	–
CC(=O)c1ccccc1NP(=O)(c1ccccc1)c1ccccc1	> 100	> 100 µM	> 100	> 100	> 100	> 100	> 100	> 100	> 100	> 100	> 100 µM	–	–	–	–	–	–	–	–	–
COc1cccc(CCNC(=O)Cc2ccccc2CCO)c1	> 100	> 100 µM	> 100	> 100	> 100	> 100	> 100	> 100	> 100	> 100	> 100 µM	–	–	–	–	–	–	–	–	–
O=C1COc2cccnc2N1CCCCO	> 100	> 100 µM	> 100	> 100	–	> 100	> 100	> 100	> 100	> 100	> 100 µM	–	–	–	–	–	–	–	–	–
O=C(O)CCCc1nc2c(n1Cc1ccccc1)C(=O)c1ccccc1C2=O	> 100	> 100 µM	> 100	> 100	> 100	> 100	> 100	> 100	74.7	> 100	> 100 µM	–	–	–	–	–	–	–	–	–
COc1cc(OC)cc(Oc2nc3ccccc3nc2C(F)(F)F)c1	> 100	> 100 µM	> 100	> 100	> 100	> 100	> 100	> 100	> 100	> 100	> 100 µM	–	–	–	–	–	–	–	–	–

SMILES	TGI (TK-10 renal) [µM]	TGI (OVCAR-5 ovarian)	TGI (786-0 renal) [µM]	TGI (A549 NSCLC) [µM]	TGI (SF-268 CNS) [µM]	TGI (IGROV1 ovarian) [µM]	TGI (SN12C renal) [µM]	TGI (SR leukemia) [µM]	TGI (OVCAR-3 ovarian) [µM]	TGI (T-47D breast) [µM]	TGI (UO-31 renal)	GI50 (UO-31 renal)	GI50 (TK-10 renal) [µM]	GI50 (OVCAR-5 ovarian)	GI50 (A549 NSCLC)	GI50 (OVCAR-3 ovarian)	GI50 (T-47D breast)	GI50 (SF-268 CNS) [µM]	GI50 (IGROV1 ovarian) [µM]	GI50 (SR leukemia) [µM]
Cc1ccc(C2SCC(=O)N2c2ccc(-n3c(-c4ccccc4)nc4ccccc4c3=O)cc2)cc1 (configuration not stated)	> 100	> 100 µM	74.1	> 100	> 100	90.7	> 100	> 100	51.9	67.3	59.1 µM	–	–	–	–	–	–	–	–	–
Cc1c2oc3c(C)ccc(C(=O)NC4C(=O)NC(C(C)C)C(=O)N5CCCC5C(=O)N(C)CC(=O)N(C)C(Cc5ccc(O)cc5)C(=O)OC4C)c3nc-2c(C(=O)NC2C(=O)NC(C(C)C)C(=O)N3CCCC3C(=O)N(C)CC(=O)N(C)C(Cc3ccc(O)cc3)C(=O)OC2C)c(N)c1=O (configuration not stated) (I: TVP[Sar][NMeY] / II: TVP[Sar][NMeY]; ester I:1-I:C, II:1-II:C; linker I:N-II:N via Actinocin(9to1); configuration not given here)	> 1	0.997 µM and > 0.443 µM	> 1	> 1	> 1	> 1	> 1	> 0.514	–	> 0.334	> 1 µM and 0.459 µM	> 0.726 µM and 0.0874 µM	0.117	0.199 µM and 0.0508 µM	0.0499 µM and 0.0119 µM	0.0176 µM and 0.00646 µM	0.0103 µM and 0.00457 µM	–	–	–
O=C(/C=C/c1ccccc1)Oc1cccc(O)c1	> 100	> 100 µM	> 100	> 100	62.6	43.6	> 100	48.6	> 100	> 100	> 100 µM	–	–	–	–	–	–	–	–	–
NC(N)=NCCN1CC2CCC(CC2)C1	> 100	> 100 µM	> 100	> 100	> 100	> 100	> 100	> 100	> 100	> 100	> 100 µM	–	–	–	–	–	–	–	–	–
CCN(CC)Cc1ccc(C(=S)Nc2ccc(Cl)cc2)s1	–	23.7 µM	26.4	25.4	30	24.1	–	24.7	37.7	34.2	23.5 µM	–	–	–	–	–	–	–	–	–
CO/N=C(\C(=O)OC(=NC1CCCCC1)NC1CCCCC1)c1csc(NC(c2ccccc2)(c2ccccc2)c2ccccc2)n1	> 10	> 10 µM	> 10	> 10	> 10	> 10	> 10	> 10	> 10	> 10	> 10 µM	–	–	–	–	–	–	–	–	–
NS(=O)(=O)c1ccc(/C=C/c2ccc(O)c(O)c2)cc1	> 100	> 100 µM	> 100	> 100	47.3	40.1	60.9	51.3	> 100	53.1	35 µM	–	–	–	22.3 µM	–	–	18.2	4.49	12.7
COC(=O)/C=C(\C(=O)OC)C1C(=O)Oc2c(C)c(=O)c3ccccc3n21 (configuration not stated)	> 100	–	> 100	> 100	> 100	> 100	> 100	> 100	> 100	> 100	–	–	–	–	–	–	–	–	–	–
N#CC1C(=S)NC(c2ccccc2)=CC12CCCCC2 (configuration not stated)	54.9	> 100 µM	> 100	> 100	> 100	70.2	> 100	50.2	–	31.1	72.1 µM	–	–	–	–	–	–	–	–	–
CC(C)NC(=O)OCc1c(COC(=O)NC(C)C)c(-c2cc[n+](COC(=O)C3CC3)cc2)n2c1CCC2	> 100	> 100 µM	> 100	> 100	> 100	> 100	> 100	> 100	> 100	> 100	> 100 µM	–	–	–	–	–	–	–	–	–
Cn1c(=O)c2c(ncn2CCNC(CO)C(O)c2ccc([N+](=O)[O-])cc2)n(C)c1=O (configuration not stated)	> 100	–	> 100	> 100	> 100	–	> 100	> 100	> 100	> 100	> 100 µM	–	–	–	–	–	–	–	–	–
CCOC(=O)CCC(NC(=O)Cc1ccc(Nc2nc3cc(F)c(F)cc3nc2C(=O)OCC)cc1)C(=O)OCC (configuration not stated)	> 100	> 100 µM	> 100	> 100	> 100	–	> 100	55.9	> 100	78.8	> 100 µM	–	–	–	–	–	–	–	–	–
C/C=C/C(CC(O)(C(F)(F)F)C(F)(F)F)=N/NC(N)=S	> 10	> 10 µM	> 10	> 10	> 10	> 10	> 10	> 10	> 10	> 10	–	–	–	–	–	–	–	–	–	–
c1ccc(N=C(N2CCCC2)N(CCN2CCCC2)c2ccccc2)cc1	> 100	> 100 µM	> 100	> 100	–	> 100	> 100	> 100	> 100	> 100	> 100 µM	–	–	–	–	–	–	–	–	–
CCOC(=O)NC(Nc1ccc(C)cc1)(C(F)(F)F)C(F)(F)F	> 100	> 100 µM	> 100	> 100	> 100	> 100	> 100	–	> 100	> 100	> 100 µM	–	–	–	–	–	–	–	–	–
C=CCc1cccc2cc(C(=O)NCc3ccccc3)c(=N)oc12	–	> 100 µM	91.4	> 100	> 100	> 100	91	> 100	58.6	> 100	–	–	–	–	–	–	–	–	–	–
CC1(C)/C(=N\NC(N)=O)C2CCC1C2 (configuration not stated)	> 100	> 100 µM	> 100	> 100	> 100	> 100	–	> 100	> 100	> 100	> 100 µM	–	–	–	–	–	–	–	–	–
N#C[C@H](c1ccccn1)c1nc2ccccc2nc1Cl	–	> 100 µM	> 100	> 100	–	> 100	> 100	> 100	> 100	> 100	> 100 µM	–	–	–	–	–	–	–	–	–
CC1CC(OP(=O)(OCc2ccccc2)OCc2ccccc2)[C@@H](OCc2ccccc2)C(OCc2ccccc2)C1OCc1ccccc1 (some centres not stated)	> 100	> 100 µM	> 100	> 100	> 100	> 100	> 100	> 100	–	> 100	> 100 µM	–	–	–	–	–	–	–	–	–

From PubChem BioAssay (NCI)
